Results taken from ChEMBL document CHEMBL1139548, “Cyclic ADP-ribose analogues containing the methylenebisphosphonate linkage: effect of pyrophosphate modifications on Ca2+ release activity” (J Med Chem, 2005).

Assay: Effective concentration against release of [Ca2+] ions from sea urchin egg
Format: functional

Compound: N=c1c2ncn3c2ncn1C1OC(COP(=O)(O)CP(=O)(O)OC[C@H]2OC3[C@H](O)C2O)[C@@H](O)[C@H]1O (single isomer, unassigned)
- EC50: 856 nM

Compound: N=c1c2ncn3c2ccn1C1OC(COP(=O)(O)CP(=O)(O)OC[C@H]2OC3[C@H](O)C2O)[C@@H](O)[C@H]1O (single isomer, unassigned)
- EC50: 300 nM
